Reference: the OPERA property sets (Mansouri et al. 2018)

Conditions: not given
With `C=CC1CO1` (stereo not drawn) the boiling point was 68 °C and the melting point was -135 °C. `Nc1ccc([N+](=O)[O-])cc1N` showed a melting point of 200 °C. Compound `Cc1ccc(S(=O)(=O)Nc2ccccc2C)cc1` has a melting point of 110 °C. In the case of `C=Cc1ccccc1`, the boiling point is reported as 145 °C, the log10 Henry constant (atm·m³/mol) is reported as -2.56 and the log10 Koc (L/kg) is reported as 2.96. The log10 vapour pressure (mmHg) was 0.806, the melting point was -31 °C and the ready biodegradability was “readily biodegradable”. `CCC(C)CCCC(C)C` (stereo not drawn) gave a boiling point of 160 °C and a log10 vapour pressure (mmHg) of 0.469. Work on `COc1ccc(C(N)=O)cc1OC` yielded a melting point of 164 °C. Compound `Cn1cnc([N+](=O)[O-])c1Sc1ncnc2nc[nH]c12` has a melting point of 244 °C. In the case of `O=C(O)Cc1cccc(F)c1`, the melting point is reported as 43 °C. With `CCCOC(=O)CC(C)C` the boiling point was 156 °C and the log10 vapour pressure (mmHg) was 0.413. In the case of `CCc1ccccc1N`, the boiling point is reported as 210 °C, the log10 vapour pressure (mmHg) is reported as -0.77 and the melting point is reported as -46.5 °C. `O=S(=O)(Cl)c1ccccc1` gave a boiling point of 252 °C, a log10 vapour pressure (mmHg) of -1.24 and a melting point of 14.5 °C. Compound `C=CCC(C)C` has a boiling point of 53.9 °C, a log10 vapour pressure (mmHg) of 2.43 and a melting point of -154 °C. The ready biodegradability was “not readily biodegradable”. In the case of `CCCCn1cccc1`, the boiling point is reported as 170 °C. `CC[Si](CC)(CC)CC` showed a boiling point of 155 °C and a log10 vapour pressure (mmHg) of 0.699. In the case of `C=C(CC(C)(C)c1ccccc1)c1ccccc1`, the ready biodegradability is reported as “not readily biodegradable”. Work on `CC(=O)c1c[nH]c2ccccc12` yielded a melting point of 192 °C. `CCCCOC(=O)CCC(=O)OCCCC` showed a boiling point of 274 °C and a melting point of -29.2 °C. `CC(C)CCBr` showed a boiling point of 120 °C, a log10 Henry constant (atm·m³/mol) of -1.46 and a log10 vapour pressure (mmHg) of 1.54. For the same compound, the melting point was -112 °C. `CCC(C)(CC(=O)O)CC(=O)O` showed a boiling point of 261 °C and a melting point of 87 °C. For `O=C(O)c1cc(-c2ccccc2)nc2ccccc12`, the melting point was 214 °C. Work on `C=CCCCCCCCCC(=O)OCC` yielded a boiling point of 264 °C and a melting point of -38 °C. `NNc1ccccn1` showed a melting point of 46.6 °C. With `Cc1c(N(C)C)c(=O)n(-c2ccccc2)n1C` the melting point was 134 °C. Compound `NCCO.O=C(Nc1ccc([N+](=O)[O-])cc1Cl)c1cc(Cl)ccc1O` has a melting point of 216 °C. For `COc1ccc(C[C@H]2NC[C@H](O)[C@H]2OC(C)=O)cc1`, the melting point was 140 °C. `NC(N)=S` gave a log10 Koc (L/kg) of 0.85, a log10 vapour pressure (mmHg) of -2.55 and a melting point of 182 °C. For `CCC(O)c1ccccc1` (stereo not drawn), the boiling point was 219 °C. For `CCCCCCCCCC=CC(=O)O`, the melting point was 17.1 °C. `Nc1ncnc2c1ncn2[C@@H]1O[C@H](CO)[C@@H](O)[C@H]1O` showed a melting point of 246 °C. Work on `CS(=O)(=O)c1ccc(C(=O)O)cc1` yielded a melting point of 270 °C. Work on `OCCCCCCCCCO` yielded a melting point of 45.8 °C. Compound `CCC(N)C(O)c1ccccc1` (stereo not drawn) has a melting point of 79.5 °C. `C[Si](C)(C)[Si](C)(C)C` showed a boiling point of 114 °C and a melting point of 13.5 °C. In the case of `OC[C@H]1O[C@@](CO)(O[C@H]2O[C@H](CO)[C@@H](O)[C@H](O)[C@H]2O)[C@@H](O[C@H]2O[C@H](CO)[C@@H](O)[C@H](O)[C@H]2O)[C@@H]1O`, the melting point is reported as 153 °C. For `CC(=O)OCC(=O)[C@H]1CC[C@H]2[C@@H]3CC[C@H]4C[C@H](O)CC[C@]4(C)[C@H]3C(=O)C[C@]12C`, the melting point was 176 °C. `CCCCCCCCCCCCOS(=O)(=O)[O-].[Na+]` showed a melting point of 206 °C. For `CCOP(=S)(OCC)Oc1ccc(S(C)(=O)=O)cc1`, the log10 Koc (L/kg) was 2.17. Compound `O=[N+]([O-])c1ccc(I)cc1` has a boiling point of 288 °C and a melting point of 175 °C. `NN=C(c1ccccc1)c1ccccc1` showed a melting point of 96.5 °C. Work on `O=C(c1ccccc1)C(Cl)Cl` yielded a boiling point of 249 °C and a melting point of 20.5 °C. `CNN` showed a boiling point of 87.5 °C, a log10 vapour pressure (mmHg) of 1.7 and a melting point of -52.4 °C. For the same compound, the ready biodegradability was “not readily biodegradable”. `CC(I)I` gave a boiling point of 180 °C. `ClC(Cl)=C(Cl)C(Cl)=C(Cl)Cl` gave a boiling point of 215 °C, a log10 Henry constant (atm·m³/mol) of -1.99 and a log10 vapour pressure (mmHg) of -0.658. The melting point was -21 °C and the ready biodegradability was “not readily biodegradable”. Work on `CCCCN(C)C` yielded a boiling point of 95 °C. `CC1(C)[C@H](/C=C2\CCSC2=O)[C@@H]1C(=O)OCc1coc(Cc2ccccc2)c1` showed a melting point of 31 °C. With `O=CNC1CCCCC1` the boiling point was 260 °C and the melting point was 39.5 °C. Work on `OCCN(CCO)c1nc(N2CCCCC2)c2nc(N(CCO)CCO)nc(N3CCCCC3)c2n1` yielded a melting point of 163 °C. With `CCOC(=O)c1ccc(Cl)cc1` the boiling point was 238 °C. Work on `O=S(=O)(Cl)c1ccc(Cl)cc1` yielded a melting point of 51 °C. `CC(=O)OC(C)C` showed a boiling point of 88.6 °C, a log10 Henry constant (atm·m³/mol) of -3.56 and a log10 Koa of 2.93. The log10 vapour pressure (mmHg) was 1.78, the melting point was -73.4 °C and the ready biodegradability was “readily biodegradable”. Work on `FC(F)(F)C(F)(F)C(F)(F)C(F)(F)C(F)(F)C(F)(F)Br` yielded a boiling point of 98 °C. With `O=C1C(O)=C(C2CCCCC2)C(=O)c2ccccc21` the melting point was 136 °C. For `O=[N+]([O-])c1ccc(C=NO)o1`, the melting point was 163 °C. In the case of `Cn1c(=O)c2c(ncn2CCOC(=O)c2cccnc2)n(C)c1=O`, the melting point is reported as 152 °C. With `CC(Oc1cc(Cl)c(Cl)cc1Cl)C(=O)O` (stereo not drawn) the log10 Koc (L/kg) was 1.75, the melting point was 182 °C and the ready biodegradability was “not readily biodegradable”. `CC(CC(=O)O)C(=O)O` (stereo not drawn) showed a melting point of 118 °C. `Oc1ccccc1C1CCCC1` gave a melting point of 34.5 °C. `CC[C@H](CC[C@@H](C)[C@H]1CC[C@H]2C3=CC=C4C[C@@H](O)CC[C@]4(C)[C@H]3CC[C@]12C)C(C)C` gave a melting point of 144 °C. Compound `FCC(F)(F)F` has a boiling point of -26 °C, a log10 Henry constant (atm·m³/mol) of -1.3 and a log10 vapour pressure (mmHg) of 3.7. It also gave a melting point of -101 °C. For `Nc1nc(N)c2nc(-c3ccccc3)c(N)nc2n1`, the melting point was 316 °C. With `O=C(O)Cc1c(Cl)ccc(Cl)c1Cl` the log10 Koc (L/kg) was 1.8 and the melting point was 161 °C. `CCCC(=O)[O-].[Na+]` gave a melting point of 251 °C. With `Cc1cc(C)cc(-c2ccccc2)c1` the boiling point was 274 °C and the melting point was 22.5 °C. `COC(=O)c1ccccc1CS(=O)(=O)NC(=O)Nc1nc(OC)cc(OC)n1` gave a log10 Koc (L/kg) of 2.5, a log10 vapour pressure (mmHg) of -13.7 and a melting point of 187 °C. With `CCCCCCCCCCCCCCCCCCOC(=O)CCSCCC(=O)OCCCCCCCCCCCCCCCCCC` the melting point was 66 °C and the ready biodegradability was “readily biodegradable”. For `CCc1cccc(O)c1`, the boiling point was 218 °C, the log10 Henry constant (atm·m³/mol) was -6.2 and the log10 vapour pressure (mmHg) was -1.3. The melting point was -4 °C and the ready biodegradability was “readily biodegradable”. For `Cc1ncc(COP(=O)(O)O)c(C=O)c1O`, the melting point was 255 °C. Work on `O=c1[nH]cc(Br)c(=O)[nH]1` yielded a melting point of 310 °C. For `O=C(O)c1ccc2c(c1)C(=O)c1ccccc1-2`, the melting point was 341 °C. For `CC(C)(O)C(F)(F)F`, the boiling point was 81 °C. `C[Si](Cl)(Cl)Cl` gave a boiling point of 65.6 °C, a log10 vapour pressure (mmHg) of 2.22 and a melting point of -90 °C. Work on `CCC(CO)(CO)[N+](=O)[O-]` yielded a melting point of 57.5 °C. `CCCC(C)COC(C)=O` (stereo not drawn) showed a boiling point of 163 °C. In the case of `Clc1ccc(C(c2ccc(Cl)cc2)C(Cl)Cl)cc1`, the boiling point is reported as 350 °C, the log10 Henry constant (atm·m³/mol) is reported as -5.18 and the log10 Koa is reported as 10.1. The log10 Koc (L/kg) was 4.21, the log10 vapour pressure (mmHg) was -5.87 and the melting point was 110 °C. `O=C(O)c1cccc(Br)c1` gave a log10 vapour pressure (mmHg) of -4.04 and a melting point of 155 °C. In the case of `N#CCc1ccccc1Cl`, the boiling point is reported as 251 °C and the melting point is reported as 24 °C. Compound `C1CSCCN1` has a boiling point of 175 °C. Compound `Cc1c2ccccc2c(C)c2c1ccc1ccccc12` has a log10 Koc (L/kg) of 5.37 and a melting point of 122 °C. `CCOC(=O)C#CC(=O)OCC` showed a melting point of 1.5 °C. Work on `CCOC(=O)C(c1c(O)c2ccccc2oc1=O)c1c(O)c2ccccc2oc1=O` yielded a melting point of 154 °C. For `CCCCC(CC)COC(=O)C=CC(=O)OCC(CC)CCCC` (stereo not drawn), the ready biodegradability was “readily biodegradable”. For `NCCCN1CCOCC1`, the boiling point was 220 °C and the melting point was -15 °C. `Oc1ccc(O)c(-c2ccccc2)c1` gave a melting point of 102 °C. `CN(C(O)=NC(C)(C)c1ccccc1)c1ccccc1` showed a melting point of 72 °C. `CCCCCCCC(=O)OCC` gave a boiling point of 208 °C, a log10 Koc (L/kg) of 3.02 and a melting point of -43.1 °C. Compound `c1cnc2ccc3ncccc3c2c1` has a melting point of 177 °C. For `c1ccc(Cn2cccc2)cc1`, the boiling point was 247 °C and the melting point was 15 °C. Compound `O=C1CC(C(=O)O)CC(=O)C1=C(O)C1CC1` (stereo not drawn) has a log10 vapour pressure (mmHg) of -7.76 and a melting point of 144 °C.

Same assay, conditions: fish
Compound `C=Cc1ccccc1` has a log10 BCF of 1.13. For `CCC(C)CCCC(C)C` (stereo not drawn), the log10 biotransformation half-life (days) was 0.61. For `NC(N)=S`, the log10 BCF was 0.3. Compound `ClC(Cl)=C(Cl)C(Cl)=C(Cl)Cl` has a log10 BCF of 3.82 and a log10 biotransformation half-life (days) of 2.07. Work on `Clc1ccc(C(c2ccc(Cl)cc2)C(Cl)Cl)cc1` yielded a log10 biotransformation half-life (days) of 2.44.
